Data as given in ChEMBL document CHEMBL1201862, “PubChem BioAssay data set” (2004).
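In this assay, cells in 96-well plates receive the compound at five concentrations for 48 hours. Endpoints are linearly interpolated between the surrounding concentrations. GI50: concentration for 50% inhibition of growth.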 Active and inactive are the calls of the source. Cut-off read from the data, not from the text of the source: active = GI50 up to about 1.1 µM and inactive = higher.

Key:
Experiment in all cases: NCI anticancer screen, dose series, 48 h
SK-MEL-28 = test system: SK-MEL-28
MDA-MB-435 = test system: MDA-MB-435
SF-539 = test system: SF-539
NCI-H23 = test system: NCI-H23
SNB-19 = test system: SNB-19
PC-3 = test system: PC-3
HOP-62 = test system: HOP-62
COLO 205 = test system: COLO 205
HOP-92 = test system: HOP-92
BT-549 = test system: BT-549
IGROV-1 = test system: IGROV-1
HL-60 = test system: HL-60
T47D = test system: T47D
SW-620 = test system: SW-620
KM12 = test system: KM12
ACHN = test system: ACHN
DU-145 = test system: DU-145
Malme-3M = test system: Malme-3M
A498 = test system: A498
SNB-75 = test system: SNB-75
CCRF-CEM = test system: CCRF-CEM
LOX IMVI = test system: LOX IMVI
786-0 = test system: 786-0
OVCAR-4 = test system: OVCAR-4
HCT-15 = test system: HCT-15
HT-29 = test system: HT-29
OVCAR-5 = test system: OVCAR-5
EKVX = test system: EKVX
MDA-MB-231 = test system: MDA-MB-231
MOLT-4 = test system: MOLT-4
TK-10 = test system: TK-10
RPMI-8226 = test system: RPMI-8226
SR = test system: SR
Hs-578T = test system: Hs-578T
RXF 393 = test system: RXF 393
A549 = test system: A549
UACC-62 = test system: UACC-62
K562 = test system: K562
NCI/ADR-RES = test system: NCI/ADR-RES
NCI-H522 = test system: NCI-H522
NCI-H226 = test system: NCI-H226
U-251 = test system: U-251
CAKI-1 = test system: CAKI-1
MDA-N = test system: MDA-N
M14 = test system: M14
NCI-H460 = test system: NCI-H460
HCC 2998 = test system: HCC 2998
UO-31 = test system: UO-31
SK-MEL-5 = test system: SK-MEL-5
OVCAR-3 = test system: OVCAR-3
MCF7 = test system: MCF7
SK-OV-3 = test system: SK-OV-3
SF-268 = test system: SF-268
HCT-116 = test system: HCT-116
SF-295 = test system: SF-295
SK-MEL-2 = test system: SK-MEL-2
SN12C = test system: SN12C
UACC-257 = test system: UACC-257
OVCAR-8 = test system: OVCAR-8

CC1(C)C2CCC3=C(CCC4(C)C5C[C@](C)(C(=O)O)CC[C@]5(C)CC[C@]34C)[C@@]2(C)CC[C@@H]1O (stereo not given in full)
GI50 (SK-MEL-28): 17.5 µM (inactive)
GI50 (MDA-MB-435): 23.7 µM (inactive)
GI50 (SF-539): 37.3 µM (inactive)
GI50 (NCI-H23): 19.3 µM (inactive)
GI50 (SNB-19): > 10 µM (inactive)
GI50 (PC-3): 14.8 µM (inactive)
GI50 (HOP-62): 17 µM (inactive)
GI50 (COLO 205): 38.3 µM (inactive)
GI50 (HOP-92): 18.6 µM (inactive)
GI50 (BT-549): 20.1 µM (inactive)
GI50 (IGROV-1): 24.2 µM (inactive)
GI50 (HL-60): 18.1 µM (inactive)
GI50 (T47D): 18 µM (inactive)
GI50 (SW-620): 16.6 µM (inactive)
GI50 (KM12): 15.4 µM (inactive)
GI50 (ACHN): 12.1 µM (inactive)
GI50 (DU-145): 18.3 µM (inactive)
GI50 (Malme-3M): 17.1 µM (inactive)
GI50 (A498): 26.5 µM (inactive)
GI50 (SNB-75): 19 µM (inactive)
GI50 (CCRF-CEM): 14.9 µM (inactive)
GI50 (LOX IMVI): 14.8 µM (inactive)
GI50 (786-0): 15.9 µM (inactive)
GI50 (OVCAR-4): 16.3 µM (inactive)
GI50 (HCT-15): 16.5 µM
GI50 (HT-29): 17.5 µM (inactive)
GI50 (OVCAR-5): 49.8 µM (inactive)
GI50 (EKVX): 20.4 µM (inactive)
GI50 (MDA-MB-231): 17.9 µM (inactive)
GI50 (MOLT-4): 15.8 µM (inactive)
GI50 (TK-10): 17.8 µM (inactive)
GI50 (RPMI-8226): 20.9 µM (inactive)
GI50 (SR): 30.8 µM (inactive)
GI50 (Hs-578T): 31 µM (inactive)
GI50 (RXF 393): 21.6 µM (inactive)
GI50 (A549): 13.1 µM (inactive)
GI50 (UACC-62): 19.3 µM (inactive)
GI50 (K562): 16.6 µM (inactive)
GI50 (NCI/ADR-RES): 17.9 µM (inactive)
GI50 (NCI-H522): 20 µM (inactive)
GI50 (NCI-H226): 29 µM (inactive)
GI50 (U-251): 13.1 µM (inactive)
GI50 (CAKI-1): 18.9 µM (inactive)
GI50 (MDA-N): 18.8 µM (inactive)
GI50 (M14): 17.5 µM (inactive)
GI50 (NCI-H460): 15.2 µM (inactive)
GI50 (HCC 2998): 64.9 µM (inactive)
GI50 (UO-31): 29.4 µM (inactive)
GI50 (SK-MEL-5): 34.3 µM (inactive)
GI50 (OVCAR-3): 15.9 µM (inactive)
GI50 (MCF7): 19.9 µM (inactive)
GI50 (SK-OV-3): 20.2 µM (inactive)
GI50 (SF-268): 31.2 µM (inactive)
GI50 (HCT-116): 16.6 µM (inactive)

CCc1nc(N)c2nc(-c3cccs3)oc2n1
GI50 (SK-MEL-28): > 100 µM (inactive)
GI50 (MDA-MB-435): > 100 µM (inactive)
GI50 (SF-539): > 100 µM (inactive)
GI50 (NCI-H23): > 100 µM (inactive)
GI50 (SNB-19): 9.25 µM (inactive)
GI50 (PC-3): > 100 µM (inactive)
GI50 (HOP-62): > 100 µM (inactive)
GI50 (COLO 205): > 100 µM (inactive)
GI50 (HOP-92): > 100 µM (inactive)
GI50 (SF-295): > 100 µM (inactive)
GI50 (BT-549): > 100 µM (inactive)
GI50 (IGROV-1): 69.7 µM (inactive)
GI50 (HL-60): > 100 µM (inactive)
GI50 (T47D): 79.8 µM (inactive)
GI50 (SW-620): > 100 µM (inactive)
GI50 (KM12): > 100 µM (inactive)
GI50 (ACHN): 36.4 µM (inactive)
GI50 (DU-145): > 100 µM (inactive)
GI50 (SK-MEL-2): > 100 µM (inactive)
GI50 (A498): > 10 µM (inactive)
GI50 (SNB-75): 71.4 µM (inactive)
GI50 (CCRF-CEM): 77.1 µM (inactive)
GI50 (SN12C): > 100 µM (inactive)
GI50 (LOX IMVI): 87.7 µM (inactive)
GI50 (786-0): > 100 µM (inactive)
GI50 (HCT-15): 86.9 µM
GI50 (HT-29): > 100 µM (inactive)
GI50 (OVCAR-5): > 100 µM (inactive)
GI50 (EKVX): 50.1 µM (inactive)
GI50 (MDA-MB-231): > 100 µM (inactive)
GI50 (MOLT-4): > 100 µM (inactive)
GI50 (TK-10): > 100 µM (inactive)
GI50 (RPMI-8226): 84.1 µM (inactive)
GI50 (SR): 54.8 µM (inactive)
GI50 (Hs-578T): 45.3 µM (inactive)
GI50 (RXF 393): > 100 µM (inactive)
GI50 (A549): > 100 µM (inactive)
GI50 (UACC-62): > 100 µM (inactive)
GI50 (K562): > 100 µM (inactive)
GI50 (NCI/ADR-RES): > 100 µM (inactive)
GI50 (NCI-H522): > 100 µM (inactive)
GI50 (NCI-H226): > 100 µM (inactive)
GI50 (U-251): > 100 µM (inactive)
GI50 (CAKI-1): > 100 µM (inactive)
GI50 (UACC-257): > 100 µM (inactive)
GI50 (MDA-N): > 100 µM (inactive)
GI50 (M14): > 100 µM (inactive)
GI50 (NCI-H460): 24.3 µM (inactive)
GI50 (HCC 2998): > 100 µM (inactive)
GI50 (UO-31): 65.6 µM (inactive)
GI50 (SK-MEL-5): > 100 µM (inactive)
GI50 (OVCAR-3): > 100 µM (inactive)
GI50 (MCF7): > 100 µM (inactive)
GI50 (OVCAR-8): > 100 µM (inactive)
GI50 (SF-268): > 100 µM (inactive)
GI50 (HCT-116): > 100 µM (inactive)
